The source of these data is PubChem BioAssay (NCI).

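Assay format: 96-well plates, 48-hour exposure. The concentration for 50% growth inhibition is given as GI50. Definition used: TGI = concentration required for complete inhibition of growth.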

Test systems include UACC-257 melanoma; A498 renal; HT29 colon; HOP-92 NSCLC; K-562 leukemia; UO-31 renal; NCI-H23 lung; ACHN renal; NCI-H522 lung; NCI-H226 lung.
Holding throughout (experiment): inhibition of tumour cell growth, NCI panel, 48 h

`CCOC(=O)c1ccc(Nc2sc(C(=O)c3ccc(Br)cc3)c(N)c2C#N)cc1`: the GI50 is 6.19 µM in the assay on UACC-257 melanoma; 0.321 µM with A498 renal; 0.447 µM in the assay with HT29 colon; 0.884 µM in the assay on HOP-92 NSCLC; 0.513 µM in the assay on K-562 leukemia; 1.93 µM in the assay with UO-31 renal. The GI50 in the assay on NCI-H23 lung was 14.3 µM; with ACHN renal, 3.24 µM; in the assay on NCI-H522 lung, 0.53 µM; with NCI-H226 lung, 19.2 µM. Besides, the TGI with UACC-257 melanoma is above 100 µM; in the assay with A498 renal, 6.02 µM; in the assay on HT29 colon it was above 100 µM; in the assay with HOP-92 NSCLC, above 100 µM; in the assay on K-562 leukemia it was above 100 µM; with UO-31 renal it was above 100 µM. The TGI with NCI-H23 lung, in the assay on ACHN renal, in the assay with NCI-H522 lung and in the assay with NCI-H226 lung was above 100 µM throughout.

As to `Cn1cc(C2=C(c3ccccc3[N+](=O)[O-])C(=O)NC2=O)c2ccccc21`, the GI50 with UACC-257 melanoma was 7.11 µM; with A498 renal, 0.384 µM; with HT29 colon, 1.81 µM; in the assay on HOP-92 NSCLC it was 6.08 µM; in the assay with K-562 leukemia, 2.14 µM; in the assay with UO-31 renal, 5.28 µM. Moreover, the GI50 in the assay on NCI-H23 lung was 7.25 µM; with ACHN renal it was 1.65 µM; with NCI-H522 lung it was 5.78 µM; in the assay with NCI-H226 lung, 4.37 µM. In addition, the TGI with UACC-257 melanoma is 17.7 µM; with A498 renal, 2.57 µM; with HT29 colon it was 12.4 µM; with HOP-92 NSCLC, 16.6 µM; in the assay on K-562 leukemia, above 25 µM; with UO-31 renal, above 20.5 µM. Moreover, the TGI is above 25 µM in the assay on NCI-H23 lung, above 23.4 µM in the assay on ACHN renal, 18.1 µM in the assay with NCI-H522 lung and above 20.3 µM in the assay with NCI-H226 lung.

Take `O=C1CC[C@H](N2C(=O)c3cccc4c(Cc5ccc(CN6CCOCC6)cc5)ccc2c34)C(=O)N1`: the GI50 with UACC-257 melanoma was 22.5 µM; in the assay with A498 renal, above 100 µM; with HT29 colon, 28.9 µM; in the assay on HOP-92 NSCLC, 8.14 µM; in the assay with K-562 leukemia, 10.2 µM; with UO-31 renal, 48.7 µM. The GI50 was 29.4 µM in the assay on NCI-H23 lung, 78.6 µM in the assay with ACHN renal, 12.3 µM in the assay with NCI-H522 lung and 11.7 µM in the assay on NCI-H226 lung. The TGI in the assay with UACC-257 melanoma, in the assay on A498 renal, with HT29 colon, in the assay with HOP-92 NSCLC, in the assay with K-562 leukemia and with UO-31 renal was above 100 µM throughout. For the same molecule, the TGI in the assay on NCI-H23 lung, with ACHN renal, in the assay on NCI-H522 lung and in the assay on NCI-H226 lung was above 100 µM in each case.

As to `COc1cc2nccc(Oc3ccc(NC(=O)NC4CC4)c(Cl)c3)c2cc1C(N)=O`, the GI50 in the assay with UACC-257 melanoma was 27 µM; with A498 renal, 4.63 µM; with HT29 colon, above 100 µM; in the assay with HOP-92 NSCLC it was 7.06 µM; with K-562 leukemia, 3.63 µM; with UO-31 renal, 5.55 µM. The GI50 with NCI-H23 lung was 15.6 µM; in the assay with ACHN renal it was 9.17 µM; in the assay on NCI-H522 lung, 5.74 µM; in the assay on NCI-H226 lung, 1.1 µM. Besides, the TGI is above 93.7 µM with UACC-257 melanoma; 51.1 µM in the assay with A498 renal; above 100 µM in the assay with HT29 colon; 38.3 µM in the assay with HOP-92 NSCLC; above 100 µM in the assay on K-562 leukemia; above 100 µM with UO-31 renal. Also, the TGI is above 74.6 µM with NCI-H23 lung, above 100 µM in the assay on ACHN renal, 28.2 µM with NCI-H522 lung and above 43.4 µM in the assay on NCI-H226 lung.

Take `COc1ccc(C(=O)Nc2ncc(Cc3cccc(Cl)c3)s2)cc1OC`: the GI50 with UACC-257 melanoma was 0.566 µM; in the assay on A498 renal, 0.211 µM; in the assay with HT29 colon, 0.148 µM; in the assay on HOP-92 NSCLC it was 1.99 µM; with UO-31 renal it was 0.953 µM; in the assay with NCI-H23 lung, 2.51 µM. Moreover, the GI50 in the assay with ACHN renal is 0.0812 µM; in the assay on NCI-H522 lung, 0.921 µM; in the assay with NCI-H226 lung, 1.48 µM. Further, the TGI was above 100 µM in the assay with UACC-257 melanoma; 1.89 µM in the assay with A498 renal; above 100 µM in the assay on HT29 colon; above 100 µM in the assay with HOP-92 NSCLC; above 100 µM with K-562 leukemia; above 100 µM in the assay with UO-31 renal. In addition, the TGI with NCI-H23 lung, in the assay on ACHN renal, in the assay on NCI-H522 lung and with NCI-H226 lung was above 100 µM throughout.

Turning to `O=C(/C=C/c1ccco1)c1cc(F)c(Cl)cc1Cl`, the GI50 with UACC-257 melanoma is 24.6 µM; in the assay on A498 renal, 18.7 µM; in the assay with HT29 colon, 24.3 µM; in the assay on HOP-92 NSCLC it was 18.1 µM; in the assay with K-562 leukemia, 30.2 µM; with UO-31 renal, 17.1 µM. The GI50 is 31 µM in the assay with NCI-H23 lung, 20.1 µM with ACHN renal, 18.4 µM in the assay on NCI-H522 lung and 19.9 µM in the assay on NCI-H226 lung. The TGI with UACC-257 melanoma was 50.5 µM; in the assay on A498 renal it was 39.2 µM; with HT29 colon, 52.1 µM; in the assay on HOP-92 NSCLC it was 39.6 µM; in the assay with K-562 leukemia it was above 100 µM; in the assay with UO-31 renal, 34 µM. Besides, the TGI was above 100 µM with NCI-H23 lung, 45.1 µM with ACHN renal, 39.5 µM with NCI-H522 lung and 47.2 µM in the assay on NCI-H226 lung.

With `Cc1ccc(NC(=O)c2ccc(CN3CCN(C)CC3)cc2)cc1Nc1nccc(-c2cccnc2)n1`, the GI50 in the assay with UACC-257 melanoma is 17.1 µM; with A498 renal, 20.6 µM; with HT29 colon, 4.88 µM; with HOP-92 NSCLC, 12.6 µM; in the assay on K-562 leukemia it was 0.0414 µM; with UO-31 renal it was 22.3 µM. The GI50 was 15 µM with NCI-H23 lung, 24.1 µM in the assay with ACHN renal, 16.1 µM in the assay on NCI-H522 lung and 19.6 µM with NCI-H226 lung. Moreover, the TGI came to 38.5 µM with UACC-257 melanoma; 39.2 µM in the assay with A498 renal; 24.1 µM in the assay on HT29 colon; 37.3 µM with HOP-92 NSCLC; 3.72 µM in the assay with K-562 leukemia; 53.8 µM in the assay on UO-31 renal. Moreover, the TGI came out at 38.2 µM in the assay with NCI-H23 lung, 72.9 µM in the assay on ACHN renal, 32.7 µM with NCI-H522 lung and 49.9 µM in the assay on NCI-H226 lung.

Take `COC(=O)C1=Cc2cc(OC)c(OC)c(OC)c2[C@H](c2cc(OC)c(OC)c(OC)c2)C1C(=O)OC` (some centres undefined): the TGI in the assay with UACC-257 melanoma was above 100 µM; with A498 renal it was above 100 µM; in the assay on HT29 colon, above 100 µM; in the assay with HOP-92 NSCLC, 74.5 µM; in the assay on K-562 leukemia it was above 100 µM; in the assay with UO-31 renal, above 100 µM. The TGI in the assay on NCI-H23 lung, in the assay with ACHN renal, in the assay on NCI-H522 lung and with NCI-H226 lung was above 100 µM in each case.
